Measured values reported in US9328138B2 (priority 2011, dated 2016).
Where a name gives a salt, the structure may show the parent alone. Read-outs that look alike come from different tables or passages of the source.

Assays:
[1] = amide bond, 18-membered ring
[2] = target: HCV NS3 protease genotype 3a (3A-1) (Hepatitis C virus genotype 3a, UniProt Q81258); assay: HCV NS3 protease time-resolved fluorescence (TRF) assay, genotype 3a; format: biochemical; details: Ki 3a
In short: (§1)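 Steps: compound plus NS3/NS4A enzyme for 10 minutes; add peptide substrate to 25 nM; let cleavage proceed 6 hours at room temperature; read product fluorescence (340 nm excitation, 615 nm emission, delayed 400 μs). Enzyme levels gave signal/background 5-20.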

[3] = target: T1, HCV genotype 1b (BK) NS3 modified enzyme with a R155K mutation (Hepatitis C virus genotype 1b, UniProt P26663, R1181K); assay: HCV NS3 protease time-resolved fluorescence (TRF) assay, genotype 1b R155K; format: biochemical; details: Ki 1b R155K
T1 construct: HCV genotype 1b (BK) NS3 modified enzyme
In short: as §1

[4] = first of two values printed in the cell (not explained)
[5] = second of two values printed in the cell (not explained)
[6] = genotype 1b (BK) NS3 R155K, single value

Structure (SMILES) | Ki [2] | Ki [3, 4] | Ki [3, 5] | other results
COC(=O)[C@@H]1C[C@@H]2CN1C(=O)[C@H](C(C)(C)C)NC(=O)O[C@H]1C[C@@H]1CCCCCc1c(nc3ccncc3c1OC1CCN(C)CC1)O2 | – | – | – | ring closure, isolated yield ([1]; HATU, 2 steps): 44.7%; ring closure, yield of all isomers (from COC(=O)[C@@H]1C[C@@H](Oc2nc3ccncc3c(OC3CCN(C)CC3)c2CCCCC[C@@H]2C[C@H]2OC(=O)N[C@H](C(=O)OC(C)(C)C)C(C)(C)C)CN1C(=O)OC(C)(C)C, amide bond, HATU, DMF, 51.5 mM, 25.0 °C, 1.5 h, 2 steps): 44.7%
COC(=O)[C@@H]1C[C@@H]2CN1C(=O)[C@H](C1(C)CCCCC1)NC(=O)O[C@@H]1C[C@H]1CCCC#Cc1c(nc3ccccc3c1OCc1ccccc1)O2 | – | – | – | ring closure, isolated yield ([1]; from COC(=O)[C@@H]1C[C@@H](Oc2nc3ccccc3c(OCc3ccccc3)c2C#CCCC[C@@H]2C[C@H]2OC(=O)N[C@H](C(=O)O)C2(C)CCCCC2)CN1, HATU/DIEA, DMF, 50.0 mM): 58.8%; ring closure, yield of all isomers (from COC(=O)[C@@H]1C[C@@H](Oc2nc3ccccc3c(OCc3ccccc3)c2C#CCCC[C@@H]2C[C@H]2OC(=O)N[C@H](C(=O)O)C2(C)CCCCC2)CN1, amide bond, HATU, DMF, 50.0 mM, 25.0 °C, 3.0 h): 58.8%
COC(=O)[C@@H]1C[C@@H]2CN1C(=O)[C@H](C1Cc3ccccc3C1)NC(=O)O[C@@H]1C[C@H]1CCCC#Cc1c(nc3ccccc3c1OCc1ccccc1)O2 | – | – | – | ring closure, isolated yield ([1]; from COC(=O)[C@@H]1C[C@@H](Oc2nc3ccccc3c(OCc3ccccc3)c2C#CCCC[C@@H]2C[C@H]2OC(=O)N[C@H](C(=O)O)C2Cc3ccccc3C2)CN1, HATU/DIEA, DMF, 50.0 mM): 80%; ring closure, yield of all isomers (from COC(=O)[C@@H]1C[C@@H](Oc2nc3ccccc3c(OCc3ccccc3)c2C#CCCC[C@@H]2C[C@H]2OC(=O)N[C@H](C(=O)O)C2Cc3ccccc3C2)CN1, amide bond, HATU, DMF, 50.0 mM, 25.0 °C, 2.0 h): 80%
CCOc1c2c(nc3ccccc13)O[C@@H]1C[C@@H](C(=O)OC)N(C1)C(=O)[C@H](C1CCCC1)NC(=O)O[C@@H]1CCC[C@H]1CCC=CC2 | – | – | – | ring closure, yield of all isomers (from C=CCC[C@@H]1CCC[C@H]1OC(=O)N[C@H](C(=O)N1C[C@H](Oc2nc3ccccc3c(OCC)c2CC=C)C[C@H]1C(=O)OC)C1CCCC1, rcm bond, Zhan catalyst 1B, 1,2-dichloroethane, 6.79 mM, 25.0 °C, 4.0 h): 79.2%
CCOC(=O)[C@@]12C[C@H]1C=CCCCCC[C@H](NC(=O)OC(C)(C)C)C(=O)N1C[C@@H](OS(=O)(=O)c3ccc(Br)cc3)C[C@H]1C(=O)N2C(=O)OC(C)(C)C | – | – | – | ring closure, yield of all isomers (from C=CCCCCC[C@H](NC(=O)OC(C)(C)C)C(=O)N1C[C@@H](OS(=O)(=O)c2ccc(Br)cc2)C[C@H]1C(=O)N(C(=O)OC(C)(C)C)[C@]1(C(=O)OCC)C[C@H]1C=C, rcm bond, Zhan catalyst 1B, 1,2-dichloroethane, 10.0 mM, 75.0 °C, 2.0 h): 84.8%
CCOC(=O)[C@@]12C[C@H]1/C=C\CCCCC[C@@H]1NC(=O)O[C@@H]3C[C@H]3CCC/C=C/c3c(nc4ccccc4c3OCCN3CCCCC3)O[C@@H]3C[C@@H](C(=O)N2)N(C3)C1=O | – | – | – | ring closure, yield of all isomers (from CCOC(=O)[C@@]12C[C@H]1/C=C\CCCCC[C@H](NC(=O)O[C@@H]1C[C@H]1CCC/C=C/B1OC(C)(C)C(C)(C)O1)C(=O)N1C[C@H](Oc3nc4ccccc4c(OCCN4CCCCC4)c3Br)C[C@H]1C(=O)N2, cc_pd bond, Pd(OAc)2/cataCXium A, Cs2CO3, dioxane, 36.6 mM, 100.0 °C, 1.0 h): 64.1%
C=C[C@@H]1C[C@]1(NC(=O)[C@@H]1C[C@@H]2CN1C(=O)[C@H](C(C)(C)C)NC(=O)O[C@@H]1C[C@H]1CCCCCc1c(nc3ccccc3c1OC1CC3CCC(C1)N3C(=O)OC(C)(C)C)O2)C(=O)NS(=O)(=O)C1(C)CC1 (single isomer, unassigned) [Example 278] | 740 nM | 0.86 nM | 20 nM | –
C=C[C@@H]1C[C@]1(NC(=O)[C@@H]1C[C@@H]2CN1C(=O)[C@H](C1CCCCC1)NC(=O)O[C@@H]1C[C@H]1CCCCCc1c(nc3ccccc3c1OC1CCN(CC(F)(F)F)CC1)O2)C(=O)NS(=O)(=O)C1(C)CC1 [Example 236, 4-{[(1aR,5S,8S,10R,22aR)-5-cyclohexyl-8-{[(1R,2S)-2-ethenyl-1-{[(1-methylcyclopropyl)sulfonyl]carbamoyl}cyclopropyl]carbamoyl}-3,6-dioxo-1,1a,3,4,5,6,9,10,18,19,20,21,22,22a-tetradecahydro-8H-7,10-methanocyclopropa[18,19][1,10,3,6]dioxadiazacyclononadecino[11,12-b]quinolin-17-yl]oxy}-1-(2,2,2-trifluoroethyl)piperidinium formate] | 110 nM | 0.33 nM | 5.44 nM | –
C=CC1C[C@]1(NC(=O)[C@@H]1C[C@@H]2CN1C(=O)[C@H](C1CCCC1)NC(=O)O[C@@H]1CCC[C@H]1CC/C=C/Cc1c(nc3ccccc3c1OCCCN1CCC1)O2)C(=O)NS(=O)(=O)C1(C)CC1 (stereo partly drawn) [Example 85, (3aR,7S,10S,12R,21E,24aS)-19-[3-(azetidin-1-yl)propoxy]-7-cyclopentyl-N-[(1R,2S)-2-ethenyl-1-{[(1-methylcyclopropyl)sulfonyl]carbamoyl}cyclopropyl]-5,8-dioxo-1,2,3,3a,5,6,7,8,11,12,20,23,24,24a-tetra deca hydro-10H-9,12-methanocyclopenta [18,19][1,10,3,6]dioxa-diazacyclononadecino[11,12-b] quinoline-10-carboxamide] | 0.56 nM | – | – | Ki [3, 6]: 0.11 nM
C=C[C@@H]1C[C@]1(NC(=O)[C@@H]1C[C@@H]2CN1C(=O)[C@H](C1CCCC1)NC(=O)O[C@@H]1CCC[C@H]1CC/C=C/Cc1c(nc3ccccc3c1OCCCN1CCCC(F)(F)C1)O2)C(=O)NS(=O)(=O)C1(C)CC1 [Example 83, (3aR,7S,10S,12R,21E,24aS)-7-cyclo pentyl-19-[3-(3,3-difluoropiperidin-1-yl)propoxy]-N-[(1R,s)-2-ethenyl-1-{[(1-methylcyclopropyl)sulfonyl]carbamoyl}cyclopropyl]-5,8-dioxo-1,2,3,3a,5,6,7,8,11,12,20,23,24,24a-tetradecahydro-10H-9,12-methanocyclopenta[18,19] [1,10,3,6]dioxadiazacyclononadecino [11,12-b]quinoline-10-carboxamide] | 23 nM | – | – | Ki [3, 6]: 1.1 nM
C=C[C@@H]1CC1(NC(=O)[C@@H]1C[C@@H]2CN1C(=O)[C@H](C1CCCCC1)NC(=O)O[C@@H]1C[C@H]1CCCCCc1c(nc3ccccc3c1OCCCN1CC(F)C1)O2)C(=O)NS(=O)(=O)C1(C)CC1 (stereo partly drawn) [Example 250] | 4.45 nM | 0.024 nM | 0.16 nM | –
C=C[C@@H]1C[C@]1(NC(=O)[C@@H]1C[C@@H]2CN1C(=O)[C@H](C(C)(C)C)NC(=O)O[C@@H]1C[C@H]1CCCCCc1c(nc3ccccc3c1OCCCN(C)Cc1nc3cc(C)ccc3[nH]1)O2)C(=O)NS(=O)(=O)C1(C)CC1 [Example 191, (1aR,5S,8S,10R,22aR)-5-tert-butyl-N-[(1R,2S)-2-ethenyl-1-{[(1-methylcyclopropyl)sulfonyl]carbamoyl}cyclopropyl]-17-(3-{methyl[(5-methyl-1H-benzimidazol-2-yl)methyl]amino}propoxy)-3,6-dioxo-1,1a,3,4,5,6,9,10,18,19, 20,21,22,22a-tetradecahydro-8H-7,10-methano cyclopropa[18,19][1,10,3,6] dioxadiazacyclononadecino[11,12-b] quinoline-8-carboxamide] | 1.5 nM | – | – | Ki [3, 6]: 0.16 nM
C=C[C@@H]1C[C@]1(NC(=O)[C@@H]1C[C@@H]2CN1C(=O)[C@H](C1(C)CCCCC1)NC(=O)O[C@@H]1C[C@H]1CCCCCc1c(nc3ccccc3c1OC1CCNCC1)O2)C(=O)NS(=O)(=O)C1(C)CC1 [Example 268, (1aR,5S,8S,10R,22aR)—N-[(1R,2S)-2-ethenyl-1-{[(1-methylcyclopropyl)sulfonyl]carbamoyl}cyclopropyl]-5-(1-methylcyclohexyl)-3,6-dioxo-17-(piperidin-4-yloxy)-1,1a,3,4,5,6,9,10,18,19,20,21,22,22a-tetradecahydro-8H-7,10-methanocyclopropa[18,19][1,10,3,6]dioxadiazacyclononadecino[11,12-b]quinoline-8-carboxamide] | 0.2 nM | 0.012 nM | 0.034 nM | –
